Measurements reported in patent US20140187594A1, “DIPHENYL ETHER COMPOUNDS FOR THE TREATMENT OF LIVER, LUNG DISORDERS, DIABETIC COMPLICATIONS AND CARDIOVASCULAR DISEASES” (ORCHID CHEMICALS AND PHARMACEUTICALS LTD, priority 2010, published 2014).

Assays:
[1] = tested on: bleomycin induced lung fibrosis; test: Bleomycin induced lung fibrosis (prophylactic); assay type: in vivo, C57BL/6 mice; conditions: 100 mg/kg p.o., 7 days before and 14 days after bleomycin; FIGS. 26 & 27
Protocol: Female C57BL/6 mice were used in this study. Animals were divided into four groups based on their body weight. To induce fibrosis bleomycin was administered at 0.1 U/animal (volume 50 μL) intratracheally to Group II (Disease control), Group III and Group IV, whereas Group I (Normal control) received only saline. The bleomycin challenged Group III and Group IV animals were treated with pentoxifylline (20 mg/kg p.o.) and compound of formula (A) (100 mg/kg p.o.) respectively, whereas Group I and the bleomycin challenged Group II animals received vehicle for 7 days before and 14 days after bleomycin administration. Body weight, feed and liquid intake and mortality rate were recorded. At the end of the study, animals were bled and plasma was stored in deep freezer (−80° C.) for biochemical parameters estimation. Then, the animals were sacrificed and lung tissue harvested and weighed. Right lung tissue was stored in deep freezer (−80° C.) for expression study and drug concentration analysis. The left lung tissues was fixed in formalin (10%) by slow infusion, then immersed and preserved in formalin (10%) for histopathology examination.

[2] = tested on: TNF-α; test: LPS induced serum TNF-α in vivo; design: species or system mice; conditions: 50 mg/kg/day oral, 10 days, LPS 400 μg/kg IP, FIG. 39
From the text: Based on the results obtained in the in-vitro studies, it can be concluded that Compounds A, B and C are moderately potent inhibitors of Aldose Reductase. […] At the end of the assay, cell lysates were probed with anti iNOS antibody. Compound of formula (A) inhibits the iNOS production in these cells (FIG. 38). […] Since iNOS is implicated in the pathology of diabetic complications, it is anticipated that Compound of formula (A) will have a protective effect in the development of neovascularization contributed by elevated iNOS. Inhibits LPS induced TNF-α and IL-6 Inhibition In Vivo: This study was undertaken when the mice are at 10-11 weeks in age. On Day 0 their body weights were measured and they were assigned to two groups of 6 mice each to get similar average group body weights. They were orally administered with either vehicle (deionized water, Group 1) or Compound of formula (A) (50 mg/kg; Group 2) daily between 9:30 and 10:30 AM for 10 days. The body weights were measured on day 3, 7 and 10 of the study before administration of vehicle or drug. On Day 10, the mice were administered LPS at 400 μg/kg, IP. After 1 hour they were orally administered with either vehicle or Compound of formula (A). […]
Serum TNF-α concentration for each group of mice is determined using the Quantikine. […] The optical density of each well was read at 450 nm using the Microplate Reader (FIG. 39).

[3] = tested on: acute alcohol induced hypertriglyceridemic mice; test: Acute alcohol induced hypertriglyceridemia; assay type: in vivo, C57BL/6 mice; conditions: (A) 100 mg/kg, disodium salt of (C) 30 mg/kg p.o., seven days, 40% alcohol challenge; FIG. 33
Protocol: Male C57BL/6 mice aged 6-8 weeks, and body weight ranges between 22-28 g were used for this study. Animals were divided into four groups (n=8) and fed normal chow feed (Nutri Lab® Rodent, Tetragon Chemie Pvt. Ltd., Bangalore) and drinking water. The Group I and Group II animals were served as a normal and disease control treated with vehicle. Group III (n=8) and Group IV (n=8) animals were treated with compound of formula (A) and disodium salts of compound of formula (C) at 100 and 30 mg/kg p.o respectively for seven days. On 7th day one hour post administration of compounds Group II, Group III and Group IV animals were challenged with 40% alcohol (10 ml/kg b.w) p.o. Eighteen hours post challenge animals were bled, plasma separated and used for biochemical parameter analysis.
(§1) The parameters like Glucose, ALT, AST, TC, TG (Clinical chemistry analyzer Erba XL 300), insulin (Linco®-CA, Product code: EZRMI-13K) and TNFα (GE Healthcare, Amersham, UK. Product code: RPN2718) were measured using commercially available kits. NEFA was measured in serum using commercially available NEFA C kit (Product code No: 279-75401, Wako pure chemical industries ltd., Japan).

[4] = tested on: TNF-α; test: LPS induced TNF-α level in NAFLD/NASH mice; assay type: in vivo; conditions: 100 mg/kg orally 28 days, LPS 500 μg/animal i.p., FIG. 28
From the text: To develop NAFLD/NASH model, the same protocol was followed as mentioned in Experiment-2. After induction, animals were further grouped as follows. Animals fed normal chow diet (n=10) served as a normal control (Group I) and animals fed HFD and HFL were further divided into two groups as disease control (Group II) (n=10) and treatment group (Group III) (n=9). Duration of the treatment was 28 days. During this period Group I and Group II animals were received water as vehicle and Group III animals were treated with compound of formula (A) 100 mg/kg orally. On 27th day, animals were kept for 12 hours fasting and on 28th day, after 60 minutes of treatment, animals were challenged with LPS (500 μg/animal) by intraperitoneal route. Then after 90 minutes of LPS challenge, blood collection was carried out, plasma and serum were separated and stored at −80° C. in deep freezer for further analysis. Following blood collection, animals were sacrificed; liver, inguinal and epididymal fats were collected and weighed.
as §1

[5] = molecular target: T1, Rat lens Aldose reductase (Rattus norvegicus, UniProt P07943); test: Aldose reductase inhibitory activity; assay type: biochemical; conditions: rat lens enzyme, 0.2 mM NADPH, pH 6.2, 25° C.
T1 construct: Rat lens Aldose reductase is used; from tissue; host or cells: rat lens
Protocol: Rat lens Aldose reductase is used. Test compound and/or vehicle is preincubated with 3000 μg/ml enzyme (J. Enzyme Inhib. 1993, 7, 249-256; Biol. Pharm. Bull. 1994, 17, 458-459) and 0.2 mM NADPH in phosphate buffer pH 6.2 for 15 minutes at 25° C. The reaction is initiated by addition of 10 mM DL-glyceraldehyde and incubated for another 20 minutes. Determination of the amount of NADPH remained is read spectrophotometrically. Compounds are screened at 10 μM. Since enzyme activity may change from lot to lot, the concentration used will be adjusted if necessary.

- IC50 [5]: 4.07 µM
SMILES: COC(=O)[C@@H](N)Cc1ccc(Oc2ccc(CC3SC(=O)NC3=O)cc2)cc1 (stereo partly drawn) [Compound of formula (A), Methyl(2S)-2-amino-3-(4-{4-[(2,4-dioxo-1,3-thiazolidin-5-yl)methyl]phenoxy}phenyl)propanoate]
- lung fibrosis formation (histopathology) [1]: significantly prevents fibrosis formation
- Serum TNF-α level [2]: reduction in TNF-α
- plasma TG [3]: significant reduction in TG
- TNF-α levels [4]: reduction
